Results on 42 compounds are retold here after publication PMC9250534, “Synthesis and direct assay of large macrocycle diversities by combinatorial late-stage modification at picomole scale” (Nature Communications, 2022).

The target in this test is T1, thrombin (Homo sapiens, UniProt P00734).
T1 construct: consists of two polypeptide chains of 36 (light chain) and 259 amino acid
Put plainly: Thrombin inhibition screen of crude macrocycle reactions (residual thrombin activity, fluorogenic substrate Z-Gly-Gly-Arg-AMC). It is filed as biochemical. The following applies: 10 µM macrocycle concentration; for % thrombin activity, Original screen / % thrombin activity, Repeat screen: macrocycles containing acid 14, crude reaction; for % thrombin activity, Repeat screen: replicate reaction and screen; for percent residual thrombin activity: crude reactions, Library 1a-l, scaffold AA1-AA2-AA3 combined with 1-16 or '-'. The method, boiled down:
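Residual activity was measured as the AMC release rate after adding 50 μM Z-Gly-Gly-Arg-AMC. This followed a 10-min room-temperature preincubation of 2 nM thrombin with 10 μM single macrocycles in pH 7.4 Tris buffer (0.6% DMSO). Percent inhibition was taken against the mean slope of DMSO controls.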

Numbered stars: 1 amine (or outer) side, 2 acyl side, 3 side chain; on linkers, the order of the positions; unused ones are H or OH. Bridge positions count the residues as written; N and C are the ends. Square brackets hold non-standard residues; d marks the D form. Peptide text beside a SMILES is read from it. * marks the point of attachment. Isoorotoyl = O=C(c1c[nH]c(=O)[nH]c1=O)*; 2Thenoyl(5-Cl) = O=C(c1ccc(Cl)s1)*; Cysteamide = C(CS[*:3])N[*:1]; 4Amb = NCc1ccc(C(=O)O)cc1; 2Furoyl = O=C(c1ccco1)*; Orn = NCCC[CH](N)C(=O)O; Bz = O=C(c1ccccc1)*; Mpa = O=C(O)CCS

Consider `O=C1CCSSCCNC(=O)C2CCCN2C(=O)C(CCCNC(=O)c2ccc(Cl)s2)NC(=O)C(Cc2c[nH]cn2)N1` (centres unmarked) [X H D2 B1] ([Mpa]H[Orn](2Thenoyl(5-Cl))P-Cysteamide; disulfide 1-C; configuration not given here), for which the “% thrombin activity, Original screen” value was 95.8% and the “% thrombin activity, Repeat screen” value is 95.8%.
For `NCCCC[C@@H]1NC(=O)CCSSCCNC(=O)C2(CC2)CNC(=O)[C@H](Cc2cnc[nH]2)NC1=O` [D1-H-B6/-], the “percent residual thrombin activity” value amounted to 116.392%.
On the same count and under the same terms, under `O=C1CCSSCCNC(=O)[C@H](CCCNC(=O)c2ccco2)NC(=O)c2ccc(cc2)CNC(=O)[C@H](CO)N1` [S-B3-D2/16] stands 114.086%; under `O=C(COc1ccccc1)NCCC[C@@H]1NC(=O)c2ccc(cc2)CNC(=O)[C@H](CO)NC(=O)CCSSCCNC1=O` [S-B3-D2/13], 119.049%.
Same read-out and setting: the figure for `O=C(COc1ccccc1)NCCCC[C@@H]1NC(=O)[C@H]2CCCN(C2)C(=O)CCSSCCNC(=O)[C@H](CO)NC1=O` [B4-D1-S/13] is 103.519%; for `O=C1CCSSCCNC(=O)[C@@H]2CCCN2C(=O)[C@H](CCCCNC(=O)c2c[nH]c(=O)[nH]c2=O)NC(=O)[C@H](Cc2c[nH]c3ccccc23)N1` [W-D1-B1/11] ([Mpa]WK(Isoorotoyl)P-Cysteamide; disulfide 1-C) it is 99.1805%.
Consider `O=C1CCSSCCNC(=O)[C@H](Cc2ccccc2)NC(=O)CCNC(=O)[C@H](CNC(=O)c2ccc(Cl)s2)N1` [X D3 B2 F], for which the “% thrombin activity, Original screen” value amounted to 56.1% and the “% thrombin activity, Repeat screen” value amounted to 56.2%.
As for `C[C@H]1NC(=O)C2(CCN(C(=O)c3ccc(Cl)s3)CC2)NC(=O)c2cccc(c2)CNC(=O)CCSSCCNC1=O` [X B5 D6 a], the “% thrombin activity, Original screen” value was 86.2% and the “% thrombin activity, Repeat screen” value was 89.2%.
The matching figures for `O=C1CCSSCCNC(=O)c2cccc(c2)CNC(=O)[C@H](Cc2ccccc2)NC(=O)[C@H](CCCNC(=O)c2ccc(Cl)s2)N1` [X D2 F B5]: 95.3% and 93.4%.
`O=C1CCSSCCNC(=O)[C@@H](Cc2ccccc2)NC(=O)c2cccc(c2)CNC(=O)C2(CCN(C(=O)c3ccc(Cl)s3)CC2)N1` [X D6 B5 f]: the “% thrombin activity, Original screen” value came to 92.3% and the “% thrombin activity, Repeat screen” value came out at 95.8%.
The matching figures for `CC[C@H](C)[C@@H]1NC(=O)[C@H](CCCNC(=O)c2ccc(Cl)s2)NC(=O)CCSSCCNC(=O)CCNC1=O` [X D2 I B2]: 94.1% and 96.8%.
As for `O=C1CCSSCCNC(=O)[C@@H]2CCCN2C(=O)[C@H](CCCCNC(=O)c2ccco2)NC(=O)[C@@H](Cc2ccc(O)cc2)N1` [y-D1-B1/16] ([Mpa][dY]K(2Furoyl)P-Cysteamide; disulfide 1-C), the “percent residual thrombin activity” value is given as 104.272%.
Regarding `O=C1CCSSCCNC(=O)[C@H](CCCNC(=O)c2ccc(Cl)s2)NC(=O)[C@H](Cc2ccccc2)NC(=O)c2cccc(c2)CN1` [X B5 F D2], the “% thrombin activity, Original screen” value is 81.9% and the “% thrombin activity, Repeat screen” value was found to be 80.4%.
In the case of `CC(C)[C@H]1NC(=O)c2cccc(c2)CNC(=O)[C@H](CCCNC(=O)c2ccco2)NC(=O)CCSSCCNC1=O` [D2-B5-v/16], the “percent residual thrombin activity” value is reported as 103.718%.
Still for that read-out and setting: the figure for `CC(C)[C@H]1NC(=O)[C@H](CCCCN)NC(=O)[C@@H]2CCCN2C(=O)CCSSCCNC1=O` [B1-D1-v/-] ([Mpa]PK[dV]-Cysteamide; disulfide 1-C) is 114.269%; for `O=C1CCSSCCNC(=O)[C@H](Cc2ccc(O)cc2)NC(=O)[C@H](CCCNC(=O)c2c[nH]c(=O)[nH]c2=O)NC(=O)C2(CC2)CN1` [B6-D2-Y/11] it is 102.523%.
Regarding `O=C1CCSSCCNC(=O)[C@H](Cc2ccc(O)cc2)NC(=O)[C@H](CCCNC(=O)COc2ccccc2)NC(=O)C2(CC2)CN1` [B6-D2-Y/13], the “percent residual thrombin activity” value worked out at 105.408%.
`CC[C@H](C)[C@@H]1NC(=O)CCNC(=O)C2(CCN(C(=O)c3ccc(Cl)s3)CC2)NC(=O)CCSSCCNC1=O` [X D6 B2 I]: the “% thrombin activity, Original screen” value came to 104.4% and the “% thrombin activity, Repeat screen” value is listed as 109.7%.
As for `O=C1CCSSCCNC(=O)[C@@H](Cc2ccc(O)cc2)NC(=O)CCNC(=O)[C@H](CCCCNC(=O)c2ccco2)N1` [D1-B2-y/16], the “percent residual thrombin activity” value was 114.281%.
As for `CC(C)[C@H]1NC(=O)C2(CCN(C(=O)c3ccc(Cl)s3)CC2)NC(=O)CCSSCCNC(=O)c2cccc(c2)CNC1=O` [X D6 v B5], the “% thrombin activity, Original screen” value was 84.9% and the “% thrombin activity, Repeat screen” value came out at 90.5%. Also, for the setting “listed as X D6 V B5”, the “% thrombin activity, Original screen” value is 98.9% and the “% thrombin activity, Repeat screen” value was 103.9%.
Turning to `O=C1CCSSCCNC(=O)[C@H](CCCCNC(=O)c2ccccc2)NC(=O)[C@@H](Cc2ccc(O)cc2)NC(=O)c2ccc(cc2)CN1` [B3-y-D1/1] ([Mpa][4Amb][dY]K(Bz)-Cysteamide; disulfide 1-C), the “percent residual thrombin activity” value stood at 107.146%.
Regarding `CC[C@H](C)[C@@H]1NC(=O)[C@H](CCCNC(=O)c2cnccn2)NC(=O)CCSSCCNC(=O)CCNC1=O` [D2-I-B2/2], the “percent residual thrombin activity” value was 113.295%.
Turning to `O=C1CCSSCCNC(=O)C2(CCN(C(=O)c3ccc(Cl)s3)CC2)NC(=O)[C@H](Cc2c[nH]cn2)NC(=O)CCN1` [X B2 H D6], the “% thrombin activity, Original screen” value is listed as 96.8% and the “% thrombin activity, Repeat screen” value turned out to be 101.7%.
The matching figures for `CC(C)C[C@@H]1NC(=O)c2cccc(c2)CNC(=O)C2(CCN(C(=O)c3ccc(Cl)s3)CC2)NC(=O)CCSSCCNC1=O` [X D6 B5 L]: 105.2% and 108.9%.
The matching figures for `CC[C@H](C)[C@@H]1NC(=O)CCSSCCNC(=O)c2ccc(cc2)CNC(=O)[C@H](CNC(=O)c2ccc(Cl)s2)NC1=O` [X I D3 B3]: 102.3% and 104.9%.
The matching figures for `C[C@H]1NC(=O)CCNC(=O)CCSSCCNC(=O)C2(CCN(C(=O)c3ccc(Cl)s3)CC2)NC1=O` [X B2 a D6]: 96.5% and 92.7%.
`NCCCC[C@@H]1NC(=O)CCSSCCNC(=O)[C@H]2CCCN(C2)C(=O)[C@H](Cc2ccccc2)NC1=O` [D1-F-B4/-]: the “percent residual thrombin activity” value stood at 110.104%.
`O=C1CCSSCCNC(=O)C2(CC2)CNC(=O)[C@H](Cc2c[nH]cn2)NC(=O)[C@H](CCCCNC(=O)c2ccc(Cl)s2)N1` [X D1 H B6]: the “% thrombin activity, Original screen” value is 105.8% and the “% thrombin activity, Repeat screen” value is recorded as 107.1%.
The matching figures for `O=C1CCSSCCNC(=O)C(CNC(=O)c2ccc(Cl)s2)NC(=O)C(Cc2ccccc2)NC(=O)c2ccc(cc2)CN1` (centres unmarked) [X B3 F D3]: 62.7% and 59.9%.
On to `CC(C)CC(=O)NCCC[C@@H]1NC(=O)[C@H]2CCCN(C2)C(=O)[C@H](CC(C)C)NC(=O)CCSSCCNC1=O` [L-B4-D2/8], for which the “percent residual thrombin activity” value is given as 106.945%.
Still for that read-out and setting: the figure for `O=C1CCSSCCNC(=O)C(Cc2ccc(O)cc2)NC(=O)C2CCCN(C2)C(=O)C(CCCCNC(=O)c2c[nH]c(=O)[nH]c2=O)N1` (centres unmarked) [D1-B4-y/11] is 105.223%; for `COc1ccc(C(=O)NCCC[C@@H]2NC(=O)CCSSCCNC(=O)CCNC(=O)[C@H](CO)NC2=O)cn1` [D2-S-B2/10] it is 107.459%.
On to `CCC(C)C1NC(=O)C(CNC(=O)c2ccc(Cl)s2)NC(=O)C2CCCN(C2)C(=O)CCSSCCNC1=O` (centres unmarked) [X B4 D3 I], for which the “% thrombin activity, Original screen” value amounted to 64.0% and the “% thrombin activity, Repeat screen” value was found to be 61.8%.
As for `CC(C)C[C@@H]1NC(=O)CCSSCCNC(=O)[C@H](CCCN)NC(=O)[C@H]2CCCN(C2)C1=O` [L-B4-D2/-], the “percent residual thrombin activity” value is given as 109.552%.
The same measure, in the same setting: the figure for `CC(C)[C@@H]1NC(=O)[C@H](CCCCNC(=O)c2c[nH]c(=O)cn2)NC(=O)CCSSCCNC(=O)C2(CC2)CNC1=O` [D1-V-B6/9] is 106.409%; for `NCCC[C@@H]1NC(=O)c2ccc(cc2)CNC(=O)[C@H](CO)NC(=O)CCSSCCNC1=O` [S-B3-D2/-] it is 119.352%; for `Cc1nnsc1C(=O)NCCCC[C@@H]1NC(=O)CCSSCCNC(=O)c2ccc(cc2)CNC(=O)[C@H](CO)NC1=O` [D1-S-B3/15] it is 113.1%.
`O=C1CCSSCCNC(=O)[C@H](Cc2cnc[nH]2)NC(=O)c2cccc(c2)CNC(=O)[C@H](CCCNC(=O)c2ccc(Cl)s2)N1` [X D2 B5 H]: the “% thrombin activity, Original screen” value came to 93.0% and the “% thrombin activity, Repeat screen” value is reported as 94.7%.
Take `O=C1CCSSCCNC(=O)[C@@H]2CCCN2C(=O)[C@H](CCCCNC(=O)c2ccccc2)NC(=O)[C@H](Cc2c[nH]c3ccccc23)N1` [W-D1-B1/1] ([Mpa]WK(Bz)P-Cysteamide; disulfide 1-C): the “percent residual thrombin activity” value was 101.199%.
Still for that read-out and setting: the figure for `O=C1CCSSCCNC(=O)[C@H](Cc2cnc[nH]2)NC(=O)c2cccc(c2)CNC(=O)[C@H](CCCNC(=O)c2ccco2)N1` [D2-B5-H/16] is 101.891%; for `O=C(Cc1c[nH]c2ccccc12)NCCC[C@@H]1NC(=O)CCSSCCNC(=O)[C@H](Cc2c[nH]cn2)NC(=O)c2cccc(c2)CNC1=O` [D2-B5-H/12] it is 99.4462%.
Turning to `O=C1CCSSCCNC(=O)[C@H]2CCCN(C2)C(=O)C2(CCN(C(=O)c3ccc(Cl)s3)CC2)NC(=O)[C@@H](CO)N1` [X s D6 B4], the “% thrombin activity, Original screen” value was 93.8% and the “% thrombin activity, Repeat screen” value was found to be 97.7%.
